Assay [1] can be described thus: Binding affinity to Escherichia coli DegP using SPMFKGV-pNA as substrate at activated state by isothermal titration calorimetry. A general note: ITC needs no label: the signal is the heat of the interaction.
The nature of assay [2]: Binding affinity to Escherichia coli DegP using SPMFKGV-pNA as substrate at resting state by isothermal titration calorimetry.
The target of assay [3] is T1, ATP-dependent Clp protease proteolytic subunit (Staphylococcus aureus (strain NCTC 8325)) (UniProt Q2G036).
T1 sequence (whole entry): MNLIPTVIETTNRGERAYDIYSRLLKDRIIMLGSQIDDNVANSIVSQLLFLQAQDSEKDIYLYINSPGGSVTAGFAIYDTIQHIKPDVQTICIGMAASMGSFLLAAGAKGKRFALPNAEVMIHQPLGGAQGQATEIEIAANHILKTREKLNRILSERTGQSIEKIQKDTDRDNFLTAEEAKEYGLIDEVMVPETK
The assay is described as follows: Inhibition of Staphylococcus aureus ClpP assessed as active site modification at 1 uM treated for 1 hr by mass spectrometry analysis relative to control.

Assay [4] addresses Programmed cell death 1 ligand 1 (Homo sapiens) (UniProt Q9NZQ7).
Description: Binding affinity to human PD-L1 (18 to 134 residues) expressed in Escherichia coli BL21(DE3) assessed as thermal stabilization by measuring melting temperature by DSF assay

pKd: −log10 of the molar value. Peptide text beside a SMILES is read from it. * marks the point of attachment. X1 = CC(C)[C@H](N*)B(O)O

The pKd is the negative decadic logarithm of the Kd, by convention in mol/L. In general, inhibition refers to the relative decrease from the control value, in per cent. What is called ΔTm is the shift of the melting midpoint relative to a reference.

Sequence of Programmed cell death 1 ligand 1 (Homo sapiens) (Q9NZQ7 whole entry): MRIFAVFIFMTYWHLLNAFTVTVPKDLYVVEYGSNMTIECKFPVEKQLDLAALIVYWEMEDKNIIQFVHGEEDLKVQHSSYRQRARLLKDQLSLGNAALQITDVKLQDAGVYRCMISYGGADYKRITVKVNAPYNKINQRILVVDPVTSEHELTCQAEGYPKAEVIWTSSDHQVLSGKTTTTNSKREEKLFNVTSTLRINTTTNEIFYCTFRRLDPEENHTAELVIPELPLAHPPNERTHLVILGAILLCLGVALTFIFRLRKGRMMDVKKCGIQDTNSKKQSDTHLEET

On to `CSCC[C@H](NC(=O)[C@@H]1CCCN1C(=O)[C@@H](N)CC(=O)O)C(=O)N[C@@H](Cc1ccccc1)C(=O)N[C@@H](CCCCN)C(=O)N[C@@H](CC(C)C)C(=O)N[C@H](B(O)O)C(C)C` (H-DPMFKL-X1), for which the pKd is 7.48 in assay [1] and 5.22 in assay [2].

On to `C#CCCC[C@H]1OC(=O)[C@@H]1c1ccc(OC)cc1`, for which the inhibition in assay [3] turned out to be 35%.

Turning to `C#Cc1ccc(C(=O)C2CN(C(=O)CCCCCCCCC=C)S2(=O)=O)cc1` (stereo not given), the inhibition in assay [3] was 63%.

Consider `COc1nc(OCc2cccc(-c3ccccc3)c2C)ccc1CNCCNC(C)=O`, for which the ΔTm in assay [4] turned out to be 13 °C.

The values are drawn from ChEMBL document CHEMBL5252564, “It's ok to be outnumbered - sub-stoichiometric modulation of homomeric protein complexes” (RSC Med Chem, 2023).
